Experimental data taken from PMC10776880 (EXCLI Journal, 2023).

Biological target: T1, ABCG2 (breast cancer resistance protein, BCRP) (Homo sapiens, UniProt Q9UNQ0)
T1 sequence (Q9UNQ0 1-655): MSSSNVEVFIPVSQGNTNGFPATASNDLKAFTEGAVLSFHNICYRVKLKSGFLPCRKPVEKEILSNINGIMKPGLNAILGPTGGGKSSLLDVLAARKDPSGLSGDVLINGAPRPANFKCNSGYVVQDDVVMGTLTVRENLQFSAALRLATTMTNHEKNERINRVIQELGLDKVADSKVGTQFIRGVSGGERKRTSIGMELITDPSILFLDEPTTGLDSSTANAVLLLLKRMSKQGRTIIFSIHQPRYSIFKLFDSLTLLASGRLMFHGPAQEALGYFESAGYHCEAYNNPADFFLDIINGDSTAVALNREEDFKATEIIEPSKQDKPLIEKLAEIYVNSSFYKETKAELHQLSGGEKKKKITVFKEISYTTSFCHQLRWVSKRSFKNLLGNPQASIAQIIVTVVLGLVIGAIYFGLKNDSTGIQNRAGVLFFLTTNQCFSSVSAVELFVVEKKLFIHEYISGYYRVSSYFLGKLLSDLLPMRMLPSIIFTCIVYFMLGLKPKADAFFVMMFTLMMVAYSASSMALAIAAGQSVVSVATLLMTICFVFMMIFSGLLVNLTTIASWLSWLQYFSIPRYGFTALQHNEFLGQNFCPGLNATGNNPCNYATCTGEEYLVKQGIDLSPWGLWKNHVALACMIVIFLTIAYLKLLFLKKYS
Experiment: Hoechst […] efflux inhibition by flow cytometry in HEK293-ABCG2 cells; 5D3 conformational antibody shift; kinetics with mitoxantrone
Type: cell-based

## Cc1cccc(C)c1OCC(=O)N[C@@H](Cc1ccccc1)[C@@H](O)C[C@H](Cc1ccccc1)NC(=O)[C@H](C(C)C)N1CCCNC1=O [LPV, lopinavir]
  IC50: 23.4 µM
